This is an account of results in patent publication US10494377B1, “Bergenin lipoic acid ester with antioxidant activity and a method of preparing the same” (SHAANXI UNIVERSITY OF SCIENCE AND TECHNOLOGY, priority 2018, dated 2019).

Test [1] can be described thus: DPPH radical scavenging activity assay. The format is biochemical. The settings on record: for DPPH clearance rate: n = 3, 30 min, 517 nm; for scavenging effect on DPPH (in words): FIG. 1, 7.02-7020 ppm. The text has this:
The Antioxidant Activity of Bergenin Lipoic Acid Ester Measured by a DPPH Radical Scavenging Activity Assay
2,2-Diphenyl-1-picryl hydrazyl (DPPH) is an organic compound composed of a stable organic radical. In the DPPH molecule, due to the presence of multiple electron-withdrawing —NO2 and large π bonds of the benzene ring, nitrogen free radical is stabilized. Its methanol solution is purple and has a maximum absorption peak at 517 nm. After the addition of an antioxidant, DPPH captures an electron to be paired with the free electron, and the purple fades and turns into a yellow substance. The absorption at 517 nm disappears, and the degree of fading is quantitatively related to the number of electrons it captures. Based on this principle, a spectrophotometer is used to detect the change of the absorbance of the DPPH radical in the sample solution, and the ability of the sample to provide hydrogen atoms and scavenge free radicals can be measured.
Preparation of DPPH solution: measuring exact amount of 2,2-diphenyl-1-picryl hydrazyl (DPPH) and dissolving in methanol to prepare a 0.2 mmol/L DPPH solution, stored at 0° C. in dark.
Preparation of test solutions: Vc (vitamin C, positive control), bergenin lipoic acid ester (sample), bergenin (control), lipoic acid (control), and mixture of bergenin and lipoic acid (reference). The test solutions were serially diluted with acetonitrile, and four groups of controls were separately dissolved in a test tube with a certain amount of methanol to prepare the same concentration gradient as the sample.
Absorbance measurement: Take 2 mL of sample solution (Table 1, number B), add 2 mL of DPPH solution with concentration of 2*10^−4 moL/L, mix and react in the dark at room temperature for 30 min, adjust to zero with methanol, and measure at 517 nm. The absorbance Ai was simultaneously measured for the absorbance Aj of 2 mL of methanol mixed with 2 mL of the sample solution and the absorbance Ao of 2 mL of DPPH solution mixed with 2 mL of acetonitrile (The experimental results are shown in Table 2).
Clearance calculation: clearance rate (%) [1−(Ai−Aj)/Ao]*100%

For test [2] the following is noted: Takahashi et al. 2003; cited from earlier work.
The conditions of test [3]: Takahashi et al. 2003; cited from earlier work. This is another data set of the same source.

Regarding `O=C(O)CCCCC1CCSS1` (stereo not shown) [D, Lipoic acid], the DPPH clearance rate in test [1] (7.02 ppm) was determined as 20.40%; in test [1] (140.4 ppm), 28.64%; in test [1] (702 ppm) it was 39.66%; in test [1] (2808 ppm), 60.54%; in test [1] (7020 ppm) it was 82.95%.
On the same counts, the results for `O=C1O[C@H]([C@@H](O)CO)C(O)=C1O` [Vc, Vitamin C] are 82.01%, 95.17%, 95.70%, 99.90% and 99.90%.
Consider `COc1c(O)cc2c(c1O)C1OC(COC(=O)CCCCC3CCSS3)C(O)C(O)C1OC2=O` (stereo not shown) [B, Bergenin lipoic acid ester], for which the DPPH clearance rate in test [1] (7.02 ppm) amounted to 27.56%; in test [1] (140.4 ppm), 60.83%; in test [1] (702 ppm), 76.34%; in test [1] (2808 ppm), 94.92%; in test [1] (7020 ppm), 97.64%. Moreover, the “scavenging effect on DPPH (in words)” value in test [1] was “better than E”; in test [1] (listed as bergenin lipoic acid ester), “significant scavenging effect on DPPH in a concentration-dependent manner”. Besides, the “scavenging ability compared with Vc (in words)” value in test [1] (concentration above 2808 ppm) is reported as “close to the scavenging ability of Vc”.
Turning to `COc1c(O)cc2c(c1O)[C@@H]1O[C@H](CO)[C@@H](O)[C@H](O)[C@H]1OC2=O` [C, Bergenin], the DPPH clearance rate in test [1] (7.02 ppm) is on record as 15.57%; in test [1] (140.4 ppm) it was 19.79%; in test [1] (702 ppm), 30.98%; in test [1] (2808 ppm), 54.56%; in test [1] (7020 ppm) it was 90.01%. For the same molecule, the “scavenging effect on DPPH free radicals (in words)” value in test [2] was “good scavenging effect”. Also, the “scavenging effect on superoxide anions (in words)” value in test [3] is on record as “good scavenging effect”.
